Reference: patent US9856196B2, “Agent for reduction of sensory irritation” (Kao Corporation, priority 2012, dated 2018)
Where two headings read alike, the source gives them in different places. Blank lines part the entries; values can stand above or below the compound they belong to.

Key:
[1] = target: human TRPA1 (Homo sapiens, UniProt O75762); test: Calcium imaging of TRPA1 activation in human TRPA1 stably expressing HEK293 cells; conditions: for TRPA1 activation caused by antiseptics and antiseptic aids: phenoxyethanol 20 to 30 mM, IPBC 0.03 to 0.1 mM, triclosan 0.1 to 0.3 mM, benzyl alcohol 20 to 30 mM, FIG. 3
Chain of human TRPA1 (O75762 whole entry): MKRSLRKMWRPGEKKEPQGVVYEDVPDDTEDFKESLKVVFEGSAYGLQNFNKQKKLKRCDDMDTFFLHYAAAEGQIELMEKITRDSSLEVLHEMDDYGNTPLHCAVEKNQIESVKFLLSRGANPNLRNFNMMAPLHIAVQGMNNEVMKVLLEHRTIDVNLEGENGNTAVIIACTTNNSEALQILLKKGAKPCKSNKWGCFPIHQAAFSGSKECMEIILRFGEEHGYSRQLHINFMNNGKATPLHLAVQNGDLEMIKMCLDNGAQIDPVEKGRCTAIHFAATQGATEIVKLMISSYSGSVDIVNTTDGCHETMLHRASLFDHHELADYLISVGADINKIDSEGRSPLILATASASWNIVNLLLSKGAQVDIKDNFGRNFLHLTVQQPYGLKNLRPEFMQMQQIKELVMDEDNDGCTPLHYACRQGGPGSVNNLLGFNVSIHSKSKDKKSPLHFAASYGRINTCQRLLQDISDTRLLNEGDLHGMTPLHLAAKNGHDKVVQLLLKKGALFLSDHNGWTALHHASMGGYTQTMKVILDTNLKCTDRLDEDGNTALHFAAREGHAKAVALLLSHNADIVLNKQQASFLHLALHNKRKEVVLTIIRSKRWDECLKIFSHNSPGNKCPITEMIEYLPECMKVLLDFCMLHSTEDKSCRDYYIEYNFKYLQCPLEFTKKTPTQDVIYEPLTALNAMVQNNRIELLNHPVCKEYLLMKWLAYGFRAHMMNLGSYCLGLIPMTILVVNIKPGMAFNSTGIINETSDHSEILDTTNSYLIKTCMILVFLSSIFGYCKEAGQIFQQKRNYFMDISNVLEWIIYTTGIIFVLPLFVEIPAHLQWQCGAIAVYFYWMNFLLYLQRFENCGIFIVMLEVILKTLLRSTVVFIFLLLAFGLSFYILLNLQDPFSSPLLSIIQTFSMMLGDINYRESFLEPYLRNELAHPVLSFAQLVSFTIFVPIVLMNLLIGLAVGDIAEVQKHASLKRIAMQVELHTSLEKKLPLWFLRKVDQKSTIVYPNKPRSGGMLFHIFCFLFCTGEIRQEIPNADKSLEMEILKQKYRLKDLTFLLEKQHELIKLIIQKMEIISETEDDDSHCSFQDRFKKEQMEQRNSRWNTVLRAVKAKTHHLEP
Text: (1) Preparation of Human TRPA1 Stably Expressing Cell Line
The human TRPA1 gene of which the full length is inserted into pENTR223.1 was purchased from Open Biosystems. The TRPA1 gene was sub-cloned into an expression vector pcDNA3.2-V5/DEST (Invitrogen) and transfected into HEK293 cells using Lipofectamine 2000 (Invitrogen).
(3) Evaluation of the Inhibitory Effect on TRPA1 Activation Caused by AITC

[2] = Inhibitory effect on irritating odor (ammonia odor, panel evaluation); format: in vivo; conditions: for ammonia odor (irritating odor) score, average: 7-stage scale 0 to 6
Protocol: Ammonia was volatilized and saturated by putting a cotton ball impregnated with a 28% ammonia water (20 μl) in a 50 ml syringe for 12 hours or more. The intensity of ammonia odor (irritating odor) was evaluated using a 7-stage scale (0 to 6). Comparative evaluation was carried out without sniffing the test perfume.
(2) Evaluation scale 0; No irritating odor, 1; very faint, 2: faint, 3; easily noticeable, 4; strong, 5; very strong, 6; extremely strong

[3] = test system: human skin; test: Sensory irritation property to antiseptic on human skin (discomfort score, sensitive women); format: in vivo; conditions: antiseptic solution (0.2% methylparaben + 0.35% phenoxyethanol) + 0.05% Compound 1 on face, versus antiseptic solution alone; maximum score, scale 0.0-3.0; FIG. 4
Protocol: (1) Selection of Test Subjects
To evaluate the skin sensory irritation, 22 women (age 20 to 59) having high sensitivity (1% lactic acid-sensitive, low current perception threshold and sensitive skin conscious with medical history of allergic disease) were selected as the subjects.
(2) Evaluation of Sensory Irritation Property to Antiseptic
After washing the face, the subjects entered a constant temperature-humidity room (room temperature 20° C., humidity about 50%) and were acclimated for 20 minutes, followed by applying 300 ill of distilled water heated to 37° C. in one side of the face from the cheek to the nose. 1, 2.5, 5 and 8 minutes after the application, the degree (intensity) of unpleasant sensation (pain) reported in accordance with the following unpleasant sensation reference values was notated.
0.0; None or pleasant sensation
0.5; Slight discomfort barely detectable
1.0; Mild discomfort, detectable sensation but tolerable
1.5; Mild to moderate discomfort
2.0; Moderate discomfort, unpleasant feeling but tolerable
2.5; Moderate to severe discomfort
3.0; Severe discomfort, intense unpleasant feeling
The distilled water was wiped off 8 minutes later, 300 μl of an antiseptic solution (0.2% methylparaben (MP)+0.35% phenoxyethanol (Phe) aqueous solution) was applied to the same part to notate the degrees of unpleasant sensation in the same manner. […]

[4] = HEK293, read-out: Ratio for TRPA1 inhibition (%), 5.0 μM AITC, test material 100 μM
[5] = HEK293, read-out: Ratio for TRPA1 inhibition (%), 10 μM AITC, test material 100 μM

inhibition at 100 µM [1, 4]: 18.7%
inhibition at 100 µM [1, 5]: 9.7%
Compound: CCC(CC(C)CO)c1ccccc1 (stereo not drawn) [Compound 6, 2-methyl-4-phenyl-1-hexanol]

inhibition at 100 µM [1, 4]: 54.9%
inhibition at 100 µM [1, 5]: 27.1%
Compound: CC(CC(C)C(C)O)c1ccccc1 (stereo not drawn) [Compound 12, 3-methyl-5-phenyl-2-hexanol]

inhibition at 100 µM [1, 4]: 19.5%
inhibition at 100 µM [1, 5]: 3.9%
Compound: CC(CO)CCc1ccccc1 (stereo not drawn) [Compound 11, 2-methyl-4-phenyl-1-butanol]

inhibition at 100 µM [1, 4]: 0%
inhibition at 100 µM [1, 5]: 0.8%
Compound: OCCCCc1ccccc1 [Comparative Compound 2, 4-phenyl-1-butanol, reference compound]

IC50 [1]: 32.5 µM
inhibition at 100 µM [1, 4]: 92.9%
inhibition at 100 µM [1, 5]: 31.8%
Compound: C/C(=C\C(C)c1ccccc1)CO (stereo not drawn) [Compound 10, (E)-2-methyl-4-phenyl-2-penten-1-ol]

inhibition at 100 µM [1, 5]: 0%
Compound: CC(CCCO)c1ccccc1 (stereo not drawn) [Comparative Compound 1, 4-phenyl-1-pentanol, reference compound]

IC50 [1]: 3.4 µM
inhibition at 100 µM [1, 4]: 103%
inhibition at 100 µM [1, 5]: 102%
Compound: CC/C(=C\C(CC)c1ccccc1)CO (stereo not drawn) [Compound 7, (E)-2-ethyl-4-phenyl-2-hexen-1-ol]

More lines, now with the values behind:

Compound: OCc1ccccc1 [benzyl alcohol, reference compound]
TRPA1 activation caused by antiseptics and antiseptic aids [1]: activate TRPA1 in a dose dependent manner

Compound: d-camphor [reference compound]
Ratio for TRPA1 inhibition (%) ([1]; 5.0 μM AITC, test material 100 μM): 1.8%
Ratio for TRPA1 inhibition (%) ([1]; 5.0 μM AITC, test material 500 μM): 27.8%
Ratio for TRPA1 inhibition (%) ([1]; 10 μM AITC, test material 100 μM): 0.0%
Ratio for TRPA1 inhibition (%) ([1]; 10 μM AITC, test material 500 μM): 15.1%
Ratio for TRPA1 inhibition (%) ([1]; 30 μM AITC, test material 0.01%): 6.9%
Ratio for TRPA1 inhibition (%) ([1]; 30 μM AITC, test material 0.03%): 89.7%
Ratio for TRPA1 inhibition (%) ([1]; stimulant Benzyl alcohol 20 mM, test material 0.5 mM): −0.89%
Ratio for TRPA1 inhibition (%) ([1]; stimulant IPBC 0.03 mM, test material 0.5 mM): 32.40%
Ratio for TRPA1 inhibition (%) ([1]; stimulant Phenoxyethanol 20 mM, test material 0.5 mM): 13.96%
Ratio for TRPA1 inhibition (%) ([1]; stimulant Triclosan 0.1 mM, test material 0.5 mM): 27.45%

Compound: Oc1cc(Cl)ccc1Oc1ccc(Cl)cc1Cl [triclosan, reference compound]
TRPA1 activation caused by antiseptics and antiseptic aids [1]: activate TRPA1 in a dose dependent manner

Compound: CCC(C=C(C)CO)c1ccccc1 (stereo not drawn) [Compound 5, 2-methyl-4-phenyl-2-hexen-1-ol]
inhibition at 100 µM [1, 4]: 83.4%
inhibition at 100 µM [1, 5]: 27.6%

Compound: CC(CO)CC(C)c1ccccc1 (stereo not drawn) [Compound 1, 2-methyl-4-phenyl-1-pentanol]
ammonia odor (irritating odor) score, average ([2]; 1 minute later): 2
ammonia odor (irritating odor) score, average ([2]; 2 minutes later): 2
ammonia odor (irritating odor) score, average ([2]; 5 minutes later): 2
ammonia odor (irritating odor) score, average ([2]; 6 minutes later): 3
ammonia odor (irritating odor) score, average ([2]; 10 minutes later): 3
ammonia odor (irritating odor) score, average ([2]; Immediately after inhalation of test perfume, five panelists): 1
time the ammonia odor reducing effect was maintained after the inhalation ([2]; after 1 minute sniffing of test perfume): 5 min
discomfort (pain) score [3]: reduced

Compound: CC/C(=C/C(CC)c1ccccc1)CO (stereo not drawn) [Compound 8, (Z)-2-ethyl-4-phenyl-2-hexen-1-ol]
IC50 [1]: 2 µM
inhibition at 100 µM [1, 4]: 102%
inhibition at 100 µM [1, 5]: 101%

Compound: CC(CO)C(C)Cc1ccccc1 (stereo not drawn) [Compound 9, 2,3-dimethyl-4-phenyl-1-butanol]
inhibition at 100 µM [1, 4]: 89.5%
inhibition at 100 µM [1, 5]: 51.7%
